Assays:
[1] = target: T1, STS (Homo sapiens, UniProt P08842); assay: In vitro inhibition of STS; format: cell-based; conditions: STS IC50, JEG-3 cell preparation; sulfamates
T1 sequence (P08842 22-583): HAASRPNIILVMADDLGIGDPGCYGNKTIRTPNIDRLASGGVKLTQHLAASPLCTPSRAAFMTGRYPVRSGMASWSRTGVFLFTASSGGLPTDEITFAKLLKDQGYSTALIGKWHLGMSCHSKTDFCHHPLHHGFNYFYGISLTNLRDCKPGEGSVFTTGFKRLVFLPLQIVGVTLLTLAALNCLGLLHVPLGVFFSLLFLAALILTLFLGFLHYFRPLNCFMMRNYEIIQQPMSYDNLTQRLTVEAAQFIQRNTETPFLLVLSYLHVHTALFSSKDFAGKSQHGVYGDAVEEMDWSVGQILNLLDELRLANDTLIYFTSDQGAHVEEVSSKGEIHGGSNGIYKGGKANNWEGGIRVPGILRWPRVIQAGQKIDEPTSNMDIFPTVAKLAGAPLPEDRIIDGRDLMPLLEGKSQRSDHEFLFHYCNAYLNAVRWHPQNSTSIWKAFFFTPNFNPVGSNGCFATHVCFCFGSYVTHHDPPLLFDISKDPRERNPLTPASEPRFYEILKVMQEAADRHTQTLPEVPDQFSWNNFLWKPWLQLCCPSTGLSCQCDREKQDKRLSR

[2] = tested on: STS; conditions: read-out: STS IC50; placental microsome preparation; cited from earlier work

| IC50 [1] [µM] | Structure (SMILES) | further results |
| --- | --- | --- |
| 0.039 ± 0.001 | N#Cc1ccc(N(Cc2c(F)cc(OS(N)(=O)=O)cc2F)n2cnnc2)cc1 [Compound 12, 4-{[(4-Cyanophenyl)(4H-1,2,4-triazol-4-yl)amino]methyl}-3,5-difluorophenyl sulfamate] | – |
| 1.56 ± 0.116 | NS(=O)(=O)Oc1ccc(CN(c2ccccc2)n2cnnc2)cc1 [Compound 20, 4-{[Phenyl(4H-1,2,4-triazol-4-yl)amino]methyl}phenyl sulfamate] | – |
| 0.029 ± 0.002 | N#Cc1ccc(N(Cc2ccc(OS(N)(=O)=O)cc2Br)n2cnnc2)cc1 [Compound 19, 3-Bromo-4-{[(4-cyanophenyl)(4H-1,2,4-triazol-4-yl)amino]methyl}phenyl sulfamate] | – |
| 0.04 ± 0.005 | N#Cc1ccc(N(Cc2ccc(OS(N)(=O)=O)cc2Cl)n2cnnc2)cc1 [Compound 17, 3-Chloro-4-{[(4-cyanophenyl)(4H-1,2,4-triazol-4-yl)amino]methyl}phenyl sulfamate] | – |
| – | Oc1ccc(CN(c2ccc3c(c2)OC(F)(F)O3)n2cnnc2)cc1 [Compound 22 e, 4-{[(2,2-Difluorobenzo[1,3]dioxol-5-yl)-[1,2,4]triazol-4-ylamino]methyl}phenol] | melting point: 182 to 185 °C |
| 0.021 ± 0.0035 | N#Cc1ccc(N(Cc2ccc(OS(N)(=O)=O)cc2F)n2cnnc2)cc1 [Compound 11, 4-{[(4-Cyanophenyl)(4H-1,2,4-triazol-4-yl)amino]methyl}-3-fluorophenyl sulfamate] | – |
| 0.052 ± 0.0066 | NS(=O)(=O)Oc1ccc(CN(c2ccc3c(c2)OC(F)(F)O3)n2cnnc2)cc1 [Compound 22, 4-{[(2,2-Difluorobenzo[d][1,3]dioxol-5-yl)(4H-1,2,4-triazol-4-yl)amino]methyl}phenyl sulfamate] | – |
| 0.044 ± 0.006 | N#Cc1ccc(N(Cc2c(Cl)cc(OS(N)(=O)=O)cc2Cl)n2cnnc2)cc1 [Compound 18, 3,5-Dichloro-4-{[(4-cyanophenyl)(4H-1,2,4-triazol-4-yl)amino]methyl}phenyl sulfamate] | – |
| – | C[C@]12CC[C@@H]3c4cc(C(F)F)c(OS(N)(=O)=O)cc4CC[C@H]3[C@@H]1CCC2=O [2-difluoromethyloestrone 3-O-sulfamate] | IC50 [2]: 0.0001 µM |
| 0.048 ± 0.002 | N#Cc1ccc(N(Cc2ccc(OS(N)(=O)=O)c(F)c2F)n2cnnc2)cc1 [Compound 13, 4-{[(4-Cyanophenyl)(4H-1,2,4-triazol-4-yl)amino]methyl}-2,3-difluorophenyl sulfamate] | – |
| 0.045 ± 0.005 | NS(=O)(=O)Oc1ccc(CN(c2cc(F)cc(F)c2)n2cnnc2)cc1 [Compound 21, 4-{[(3,5-Difluorophenyl)(4H-1,2,4-triazol-4-yl)amino]methyl}phenyl sulfamate] | – |
| 0.06 ± 0.0024 | N#Cc1ccc(N(Cc2ccc(OS(N)(=O)=O)c(C(F)F)c2)n2cnnc2)cc1 [Compound 15, 4-{[(4-Cyanophenyl)(4H-1,2,4-triazol-4-yl)amino]methyl}-2-(difluoromethyl)phenyl sulfamate] | – |

Source: PMC3743159 (Chemmedchem, 2013)
